Experimental data taken from patent US20080228069A1, “Novel Differential Imaging Method” (MEDIPHYSICS, INC., priority 2003, published 2008).

Experiments:
[1] = cited from earlier work
[2] = system: SK—N—SH human neuroblastoma cells; settings: over activity range; cited from earlier work
[3] = system: myocardial uptake of ^123I mIBG; assay: ^123I mIBG imaging with and without amitryptaline; format: in vivo, human
Experimental: 4 patients with movement disorders and aged between 66 and 75 were selected for this study. Neurological examination raised the differential diagnosis between essential tremor and Parkinson's disease. Prior to the study, none of the patients was taking any medication known to interfere with mIBG uptake. In all patients two ^123I mIBG scans were performed, one of which was performed after administration of a single oral dose of 25 mg amitryptaline one hour prior to ^123I mIBG administration. The imaging protocol was carried out for both scans as described in the following paragraphs.
The patients were treated with 200-500 mg of potassium perchlorate 30 minutes before injection of ^123I mIBG. […]
Anterior planar images of the thorax were obtained at 15 minutes and at 4 hours after ^123I mIBG injection with the subject in a supine position. The gamma camera (GE Millenium) was equipped with a low-energy, parallel-hole, general purpose collimator, and a 20% energy window on 159 KeV if ^123I is used.
SPECT was performed with collection of 32 projections of 30-60 seconds each, acquired over 180° orbit, with 3°-6° angle interval in a 64×64 matrix starting in the 45° right anterior oblique projection and finishing in the 45° left posterior oblique projection.
Studies were reconstructed using a Butterworth filtered backprojection technique. Three tomographic images were obtained from the SPECT study, i.e. vertical long axis slices, short axis slices, and horizontal long axis slices. Bull's eye polar map was generated from the apical to the basal short axis slices to show relative tracer distribution in the myocardium. Reconstruction was performed without attenuation and scatter correction.
The parameters used for quantification of myocardial ^123I-mIBG activity were heart to mediastinum ratio (HMR) and myocardial washout rate (WR). […] The WR is calculated by dividing the product of […] by myocardial counts at 15 minutes and multiplying by 100. […]

NC(N)=NCc1ccc(F)c(I)c1 [^18F-FIBG]
uptake in mouse heart and adrenals [1]: Specific and high uptake
percent binding to SK—N—SH human neuroblastoma cells [2]: remained constant over a 3-log activity range

CN(C)CCC=C1c2ccccc2CCc2ccccc21 [amitryptaline]
myocardial uptake of ^123I mIBG when amitryptaline was administered before ^123I mIBG ([3]; FIG. 3, two of the four subjects, single oral dose of 25 mg amitryptaline one hour prior to ^123I mIBG): marked decrease
difference in the myocardial uptake of ^123I mIBG following administration of amitryptaline ([3]; FIG. 4, the other two subjects, single oral dose of 25 mg amitryptaline one hour prior to ^123I mIBG): no notable difference
uptake of ^123I mIBG in the stress image ([3]; half of the patients imaged (4 patients), adrenergic interfering agent amitryptaline): Reduced uptake
